Laboratory results: ChEMBL document CHEMBL5236646, “Design, synthesis, and biological evaluation of BRD4 degraders” (Bioorg Med Chem, 2023)
Activity calls are given as the source filed them. No cut-off for these calls is given here.

Tests used:
[1] = test system: MM1.S; assay: Antiproliferative activity against human MM1.S cells assessed as inhibition of cell growth incubated for 72 hrs MTS assay; format: functional, cell-based
[2] = test system: MV4-11; assay: Antiproliferative activity against human […] cells assessed as inhibition of cell growth incubated for 72 hrs MTS assay; format: functional, cell-based; details: MV4-11, 72 h
[3] = target: T1, Protein cereblon/Bromodomain-containing protein 4 (Homo sapiens) (UniProt O60885+Q96SW2); assay: Protac activity at CRBN/BRD4 in human MM1.S cells assessed as induction of BRD4 protein degradation by measuring residual activity at 0.07 uM incubated for 3 hrs by Western blot analysis relative to control; format: cell-based
T1 sequence (Q96SW2 whole entry, looked up, other chains not shown): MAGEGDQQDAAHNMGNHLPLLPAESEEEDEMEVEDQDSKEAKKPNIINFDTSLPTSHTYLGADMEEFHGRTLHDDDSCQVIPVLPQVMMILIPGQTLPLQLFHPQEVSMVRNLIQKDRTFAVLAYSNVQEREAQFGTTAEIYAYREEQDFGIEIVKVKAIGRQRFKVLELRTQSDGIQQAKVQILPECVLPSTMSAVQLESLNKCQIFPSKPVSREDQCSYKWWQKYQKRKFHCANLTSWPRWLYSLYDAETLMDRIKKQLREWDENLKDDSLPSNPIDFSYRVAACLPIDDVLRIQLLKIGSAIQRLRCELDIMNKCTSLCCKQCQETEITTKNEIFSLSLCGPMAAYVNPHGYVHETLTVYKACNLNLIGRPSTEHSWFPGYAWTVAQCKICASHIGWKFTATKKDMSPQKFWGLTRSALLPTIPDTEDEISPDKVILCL

[4] = target: T1, Protein cereblon/Bromodomain-containing protein 4 (Homo sapiens); assay: Protac activity at CRBN/BRD4 in human MM1.S cells assessed as induction of BRD4 protein degradation by measuring residual activity at 0.2 uM incubated for 3 hrs by Western blot analysis relative to control; format: cell-based
[5] = target: T1, Protein cereblon/Bromodomain-containing protein 4 (Homo sapiens); assay: Protac activity at CRBN/BRD4 in human MM1.S cells assessed as induction of BRD4 protein degradation by measuring residual activity at 0.6 uM incubated for 3 hrs by Western blot analysis relative to control; format: cell-based
[6] = target: T1, Protein cereblon/Bromodomain-containing protein 4 (Homo sapiens); assay: Protac activity at CRBN/BRD4 in human MV4-11 cells assessed as induction of BRD4 protein degradation by measuring residual activity at 0.01 uM incubated for 3 hrs by Western blot analysis relative to control; format: cell-based
[7] = target: T1, Protein cereblon/Bromodomain-containing protein 4 (Homo sapiens); assay: Protac activity at CRBN/BRD4 in human MV4-11 cells assessed as induction of BRD4 protein degradation by measuring residual activity at 0.03 uM incubated for 3 hrs by Western blot analysis relative to control; format: cell-based
[8] = target: T1, Protein cereblon/Bromodomain-containing protein 4 (Homo sapiens); assay: Protac activity at CRBN/BRD4 in human MV4-11 cells assessed as induction of BRD4 protein degradation by measuring residual activity at 0.09 uM incubated for 3 hrs by Western blot analysis relative to control; format: cell-based
[9] = target: T1, Protein cereblon/Bromodomain-containing protein 4 (Homo sapiens); assay: Protac activity at CRBN/BRD4 in human MM1.S cells assessed as downregulation of MYC protein expression at […] incubated for 3 hrs by Western blot analysis; format: cell-based
[10] = Inhibition of TGF-beta induced activation of human MRC5 cells assessed as residual BRD4 protein level at 0.1 uM by Western blot analysis (reference value: 96%); format: functional
[11] = Inhibition of TGF-beta induced activation of human MRC5 cells assessed as residual BRD4 protein level at 0.5 uM by Western blot analysis (reference value: 96%); format: functional
[12] = target: T1, Protein cereblon/Bromodomain-containing protein 4 (Homo sapiens); assay: Protac activity at CRBN/BRD4 in human MM1.S cells assessed as induction of BRD4 protein degradation by measuring residual activity at 0.03 uM incubated for 3 hrs by Western blot analysis relative to control; format: cell-based
[13] = target: T1, Protein cereblon/Bromodomain-containing protein 4 (Homo sapiens); assay: Protac activity at CRBN/BRD4 in human MM1.S cells assessed as induction of BRD4 protein degradation by measuring residual activity at 0.1 uM incubated for 3 hrs by Western blot analysis relative to control; format: cell-based
[14] = target: T1, Protein cereblon/Bromodomain-containing protein 4 (Homo sapiens); assay: Protac activity at CRBN/BRD4 in human MM1.S cells assessed as induction of BRD4 protein degradation by measuring residual activity at 0.3 uM incubated for 3 hrs by Western blot analysis relative to control; format: cell-based
[15] = target: T1, Protein cereblon/Bromodomain-containing protein 4 (Homo sapiens); assay: Protac activity at CRBN/BRD4 in human MM1.S cells assessed as induction of BRD4 protein degradation by measuring residual activity at 1.8 uM incubated for 3 hrs by Western blot analysis relative to control; format: cell-based
[16] = target: T1, Protein cereblon/Bromodomain-containing protein 4 (Homo sapiens); assay: Protac activity at CRBN/BRD4 in human MV4-11 cells assessed as induction of BRD4 protein degradation by measuring residual activity at 0.04 uM incubated for 3 hrs by Western blot analysis relative to control; format: cell-based
[17] = target: T1, Protein cereblon/Bromodomain-containing protein 4 (Homo sapiens); assay: Protac activity at CRBN/BRD4 in human MV4-11 cells assessed as induction of BRD4 protein degradation by measuring residual activity at 0.12 uM incubated for 3 hrs by Western blot analysis relative to control; format: cell-based
[18] = target: T1, Protein cereblon/Bromodomain-containing protein 4 (Homo sapiens); assay: Protac activity at CRBN/BRD4 in human MV4-11 cells assessed as induction of BRD4 protein degradation by measuring residual activity at 0.36 uM incubated for 3 hrs by Western blot analysis relative to control; format: cell-based

SMILES	IC50 [1] [µM]	IC50 [2] [µM]	Activity [3] [%]	Activity [4] [%]	Activity [5] [%]	Activity [6] [%]	Activity [7] [%]	Activity [8] [%]	other results
Cc1sc2c(c1C)C(c1ccc(Cl)cc1)=N[C@@H](CC(=O)NCCCCNC(=O)c1ccc(COc3cccc4c3C(=O)N(C3CCC(=O)NC3=O)C4=O)cc1)c1nnc(C)n1-2 (some centres not stated)	0.297	0.025	117	97	87	126	108	91	–
Cc1sc2c(c1C)C(c1ccc(Cl)cc1)=N[C@@H](CC(=O)NCCCNC(=O)c1ccc(COc3cccc4c3C(=O)N(C3CCC(=O)NC3=O)C4=O)cc1)c1nnc(C)n1-2 (some centres not stated)	0.302	0.028	126	108	84	89	66	78	Activity [9]: inactive
Cc1sc2c(c1C)C(c1ccc(Cl)cc1)=N[C@@H](CC(=O)OC(C)(C)C)c1nnc(C)n1-2	0.062	0.042	–	–	–	–	–	–	–
COC(=O)c1ccc2c(c1)NC(=O)/C2=C(\Nc1ccc(N(C)C(=O)CN2CCN(C)CC2)cc1)c1ccccc1 [NINTEDANIB]	–	–	–	–	–	–	–	–	Activity [10]: 88%; Activity [11]: 71%
Cc1sc2c(c1C)C(c1ccc(Cl)cc1)=N[C@@H](CC(=O)NCCNC(=O)c1ccc(COc3cccc4c3CN(C3CCC(=O)NC3=O)C4=O)cc1)c1nnc(C)n1-2 (some centres not stated)	0.182	0.018	–	–	–	141	141	120	Activity [12]: 99%; Activity [13]: 92%; Activity [14]: 89%
Cc1sc2c(c1C)C(c1ccc(Cl)cc1)=N[C@@H](CC(=O)NCCCCNC(=O)c1ccc(CNc3cccc4c3C(=O)N(C3CCC(=O)NC3=O)C4=O)cc1)c1nnc(C)n1-2 (some centres not stated)	0.602	0.128	–	144	141	–	–	–	Activity [15]: 139%; Activity [16]: 121%; Activity [17]: 99%; Activity [18]: 131%
